Each structure is given as a SMILES string.

Our source for the solubility of vilazodone values is US12171761B2, “Vilazodone inclusion complexes, compositions and preparation thereof” (Sunshine Lake Pharma Co., Ltd., priority 2016, dated 2024).

This series in a line: Solubility of vilazodone under different physiological pH conditions. The series is classed as physicochemical. As to the method:
The inventors discovered that a main cause of the difference in vilazodone bioavailability between fasted and fed conditions is the significant difference in the solubility of vilazodone under different physiological pH conditions. Vilazodone is mainly absorbed in the small intestine where the physiological pH is about 6.8, and the solubility of vilazodone under such a pH is very low. Thus the amount and rate of vilazodone that is dissolved in the stomach will affect its absorption in the small intestine. […] However, in a 0.1 N HCl solution (simulated stomach fasted conditions), the solubility of vilazodone is poor, resulting in a significant reduction in bioavailability.

Take `N#Cc1ccc2[nH]cc(CCCCN3CCN(c4ccc5oc(C(N)=O)cc5c4)CC3)c2c1` [Vilazodone, 5-(4-[4-(5-cyano-1H-indol-3-yl)butyl]-1-piperazinyl)-2-benzofuran-2-carboxamide]: the solubility of vilazodone entry is, setting by setting: (0.1 N HCl solution (simulated stomach fasted conditions)) “poor”; (pH 3.1 buffer (simulated stomach fed conditions)) “dissolves well”; (physiological pH about 6.8 (small intestine)) “very low”.
